# According to US8765726B2, “Use of pyridone derivatives in the prevention or treatment of tissue or organ toxicity induced by cytotoxic agents and radiation” (Shanghai Genomics, Inc., priority 2006, dated 2014):
# Legend:
# [1] = test system: radiation-induced lung injuries; test: Example 1 repeated with F351 on radiation-induced lung injuries; type: in vivo; conditions: Prophylactic and therapeutic administration, irradiated mice, twenty per group; 'should show'
# Excerpt: The experiments in Example 1 are repeated, except that 5-methylpyridin-1(4-hydroxyphenyl)-2-(1H)-one (F351) rather than Pirfenidone is used, with twenty mice in each group.
# [2] = test system: Adriamycin-induced renal toxicity; test: Adriamycin-induced renal toxicity in rats (urine proteins, renal pathology); type: in vivo, Wistar rats; conditions: Adriamycin 7.5 mg/kg tail vein day 1, F351 250 mg/kg per day gavage for 12 weeks
# Description: (§1) 20 male Wistar rats (with body weight 180-220 g) were randomly divided into three groups with 4 rats in control group, 8 rats in Adriamycin-treated group, and 8 rats in Adriamycin+F351-treated group. All the animals (except for those in control group) were injected with 7.5 mg/kg adriamycin by tail vein injection on day 1 of the study. Animals in Adriamycin+F351-treated group were administrated by gauvage with 250 mg/kg F351 per day for 12 weeks starting on day 1 of the study. Animals in the control group were injected with PBS, instead. The study lasted for 12 weeks.
# Rat urine was collected 24 hours before the end of the study and amount of urine proteins was determined. Renal tissues were also collected for pathology examination.
# as §1, with “injection at” for “injection on”, “study. Animals in control group were injected with PBS instead.” for “study.”, “day 1.” for “day 1 of the study. Animals in the control group were injected with PBS, instead. The study lasted for 12 weeks.”
# [3] = test system: Bleomycin-induced lung fibrosis; test: Bleomycin-induced lung fibrosis in mice (pathology, lung index); type: in vivo, C57B6 mice; conditions: Bleomycin 5 mg/kg intratracheal day 1, F351 100 mg/kg/day or dexamethasone 3 mg/kg per day gavage for 28 days
# Description: Forty eight (48) C57B6 mice (with body weight 16-18 g), half male and half female, were used in the study. Animals were divided into four groups with 12 animals per group. All the animals (except for those in control group) were injected with 5 mg/kg Bleomycin in the volume of 50 ul by intratracheal instillation on day 1 of the study. Animals in control group were injected by PBS instead. […] Pathology examination was performed at day 28.
# [4] = test system: Cyclosporine A-induced nephrotoxicity; test: Cyclosporine A-induced nephrotoxicity in rats (mean arterial pressure, kidney fibrosis score); type: in vivo, Wistar rats; conditions: CsA 15 mg/kg subcutaneous + F351 100 mg/Kg/day, once a day for 28 days, low salt diet
# Description: 24 male Wistar rats (with body weight 180-220 g) were given low salt diet for 7 days before the study and randomly divided into three groups with 8 rats per group. The groups were named as control group, cyclosporine A (CsA)-treated group, and CsA+[…]-treated group. [table] The animals were treated once a day for 28 days as indicated in the above table. Once every 7 days, the animals were weighed and the dose of CsA and […] were adjusted in terms of body weight. Low salt diet was given to the animals during the whole study period. Mean arterial pressure was determined in alert state of the animals at the end of the study. Renal tissues were also collected for pathology examination.
# [5] = test system: radiation-induced lung injuries; test: Radiation-induced lung injuries in mice (bronchial alveolar lavage cell count, whole-lung hydroxyproline); type: in vivo, BALB/C mice; parameters: unit not given here; conditions: 1200 cGy chest
# Excerpt: Irradiation source: Varian 600C linear accelerator, 6MV X ray
# Irradiation method: The mice, six per row, were each detained in an organic-glass cage. The cage was lid with a 1.5 cm thick organic glass plate to compensate the buildup effect. The source-to-skin distance was 100 cm, the irradiation field was 2.5×18 cm. The animal's head and abdomen were sheltered by the lead baffle of the collimator, and thus only the chest was exposed to the irradiation. The single dose of irradiation is 1200 cGy. A sealed transfer box equipped with an air filtering device should be used to transfer the animals from or back to the animal house.
# Animals: 10-week old BALB/C mice
# Control Model group (60 mice): The mice were irradiated but not treated with the compound.
# (§2) Prophylaxis group (60 mice): The medication at a predetermined dose was started 2 days before the irradiation. The irradiation method and the dosage were the same as in the control group. Pirfenidone was administered by gauvage (200 mg/kg, dissolved in 0.5% CMC-Na and administrated at the volume of 0.1 ml/10 g) once a day for 3 months.
# as §2, with “Treatment” for “Prophylaxis”, “medication” for “medication at a predetermined dose”, “at day 0 of” for “2 days before”, “and” for “and the”
# Blank control group (60 mice): The mice were not irradiated, and were only administered by gauvage with 0.5% CMC-Na once a day for 3 months.
# The mice of each group were observed once a day after irradiation to examine the mortality. The cytometry and cell sorting of the lavage, collagen content measurement (hydroxyproline), pathomorphological observation were conducted periodically after medicament treatment.
# Cytometry of the bronchial alveolar lavage liquid: the right lung was perfused with normal saline. 1.5-2.0 ml lavage liquid was collected into an Ependoff tube by gentle suction. The content of the inflammatory cells was counted manually by use of a haemocytometer immediately after collection of the bronchial alveolar lavage liquid.
# Measurement of the hydroxyproline content: The measurement was performed with isolated lung tissue by following the instruction in the hydroxyproline kit.
# Histopathologic examination: The isolated lung tissue was fixed in formaldehyde solution, pafarrin-imbeded after dehydration, and then subjected to HE staining and Masson trichrome staining. Evaluation criteria: Radiation-induced lung injuries was evaluated according to the standard semi-quantitative scoring of the Ashcroft interstitial pulmonary fibrosis.
# [6] = test system: radiation-induced lung injuries; test: Tolerance to the therapeutic irradiation dosage, prophylactic Pirfenidone in irradiated mice; type: in vivo; conditions: Prophylactic administration, 200 mg/kg gavage once a day started 2 days before irradiation
# Description: (a) Method: the Same as Described in Example 1. Prophylaxis group (60 mice): The medication was started 2 days before the irradiation. The mice were divided into two groups. The animals were administered by gauvage with Pirfenidone (200 mg/kg, dissolved in 0.5% CMC-Na and administrated at the volume of 0.1 ml/10 g) once a day for 3 months. Each group consisted of 60 mice. The mice of each group were observed once a day after irradiation to examine the dyspnea and mortality. The lung weighing, cytometry and cell sorting of the bronchial alveolar lavage liquid, collagen content measurement (hydroxyproline), measurement of cytokines (ACE, TGF-β, TGF-α etc) in the plasma, and pathomorphological observation were conducted periodically after the medicament treatment.
# [7] = Blood level of Pirfenidone capsule in healthy subjects on repeated dosing; type: in vivo, human; conditions: Twelve healthy subjects, capsule 400 mg once a day or three times a day for 5 days
# Description: Twelve healthy subjects were administered with Pirfenidone capsule at the dose of 400 mg, once a day or three times a day. The medication continued for 5 days. The blood level of the medicine was measured every day.
# [8] = test system: radiation-induced lung fibrosis; test: Prevention and/or treatment of radiation-induced lung fibrosis in mice (macrophages, fibrosis evaluation, hydroproline); type: in vivo, BalB/C male mice; conditions: for Cytometry of macrophages / Evaluation on lung fibrosis / Hydroproline level: P + R group: 200 mg/kg/day from two days before 1200 cGy chest radiation for 12 weeks
# Description: BalB/C male mice were randomly divided into three groups, namely, Control group (C group), Radiation group (R group), and Pirfenidone+Radiation (P+R group). All the animals were given single dose radiation on chest at 1200 cGy. Drugs were administrated two days before radiation for 12 weeks at 200 mg/kg/day. Examination includes cytometry of macrophages (performed 4 weeks and 8 weeks after drug administration), determination of hydroproline level (performed 16 weeks and 24 weeks after drug administration), and pathology examination of lung tissues by HE staining and Masson staining and evaluation of lung fibrosis by Ashcroft semi-quantitative evaluation standard under a microscope (performed 16 weeks and 24 weeks after drug administration).
# [9] = test system: bleomycin-induced lung fibrosis; test: Bleomycin-induced lung fibrosis in rat: side effects of dexamethasone compared with pirfenidone
# Excerpt: Dexamethasone treatment was used as positive control in one study was designed to investigate the effects of pirfenidone on bleomycin-induced lung fibrosis in rat.
# [10] = Prophylaxis group: 200 mg/kg gavage once a day started 2 days before irradiation, Month 2
# [11] = Prophylaxis group: 200 mg/kg gavage once a day started 2 days before irradiation, Month 3
# [12] = Prophylaxis group: 200 mg/kg gavage once a day started 2 days before irradiation, Month 4
# [13] = Prophylaxis group: 200 mg/kg gavage once a day started 2 days before irradiation, Month 5
# [14] = Prophylaxis group: 200 mg/kg gavage once a day started 2 days before irradiation, Month 6
# [15] = Treatment group: 200 mg/kg gavage once a day from day 0 of irradiation, Month 2
# [16] = Treatment group: 200 mg/kg gavage once a day from day 0 of irradiation, Month 3
# [17] = Treatment group: 200 mg/kg gavage once a day from day 0 of irradiation, Month 4
# [18] = Treatment group: 200 mg/kg gavage once a day from day 0 of irradiation, Month 5
# [19] = Treatment group: 200 mg/kg gavage once a day from day 0 of irradiation, Month 6
# [20] = Bleomycin-treated rats plus test drug
smiles,measurement,setting,value
"Cc1ccc(=O)n(-c2ccc(O)cc2)c1 [F351, 5-methyl-1-(4-hydroxylphenyl)-2-(1H)-pyridone]",Amount of inflammatory cells in the bronchial alveolar lavage liquid,[1],reduce the amount of inflammatory cells
same,Degree of kidney fibrosis by pathology examination,[2],reduced the degree of kidney fibrosis
same,Amount of Urine Proteins,[2]; x ± s,54.32 ± 10.88 mg/24 hrs
same,Lung Index (±S),[3],1511.71 ± 945.55
same,"Pathological changes of the lung (pathology examination, HE and Masson staining)",[3]; day 28,significant improvement
same,Score on Kidney Fibrosis,[4],0.62 ± 0.15
same,Mean Arterial Pressure,[4]; x ± s,16.02 ± 0.27 kPa
Cc1ccc(=O)n(-c2ccccc2)c1 [Pirfenidone],Measurement of hydroxyproline in the whole lung,"[5]; Prophylaxis group: 200 mg/kg gavage once a day started 2 days before irradiation, Month 1",43.85
same,Cell count of bronchial alveolar lavage liquid,[5]; [10],2.27
same,Measurement of hydroxyproline in the whole lung,[5]; [10],43.81
same,Cell count of bronchial alveolar lavage liquid,[5]; [11],2.03
same,Measurement of hydroxyproline in the whole lung,[5]; [11],50.46
same,Cell count of bronchial alveolar lavage liquid,[5]; [12],4.5
same,Measurement of hydroxyproline in the whole lung,[5]; [12],56.98
same,Cell count of bronchial alveolar lavage liquid,[5]; [13],27.7
same,Measurement of hydroxyproline in the whole lung,[5]; [13],58.1
same,Cell count of bronchial alveolar lavage liquid,[5]; [14],15
same,Measurement of hydroxyproline in the whole lung,[5]; [14],58.15
same,Measurement of hydroxyproline in the whole lung,"[5]; Treatment group: 200 mg/kg gavage once a day from day 0 of irradiation, Month 1",36.11
same,Cell count of bronchial alveolar lavage liquid,[5]; [15],5.78
same,Measurement of hydroxyproline in the whole lung,[5]; [15],46.36
same,Cell count of bronchial alveolar lavage liquid,[5]; [16],1.04
same,Measurement of hydroxyproline in the whole lung,[5]; [16],52.13
same,Cell count of bronchial alveolar lavage liquid,[5]; [17],8.04
same,Measurement of hydroxyproline in the whole lung,[5]; [17],60.38
same,Cell count of bronchial alveolar lavage liquid,[5]; [18],45.55
same,Measurement of hydroxyproline in the whole lung,[5]; [18],67.92
same,Cell count of bronchial alveolar lavage liquid,[5]; [19],39.29
same,Measurement of hydroxyproline in the whole lung,[5]; [19],68.24
same,Cell count in the bronchial alveolar lavage liquid versus control group,[6],lower than that of the control group
same,Day on which blood stasis was achieved (blood level of the medicine),[7],3 days
same,Toxic effect on BalB/C mice,[8]; 200 mg/kg/day for 12 weeks,little toxic effect
same,Cytometry of macrophages,[8]; 4 weeks,6.67 ± 2.04 1 × 10^4/ml
same,Cytometry of macrophages,[8]; 8 weeks,2.27 ± 1.41 1 × 10^4/ml
same,Evaluation on lung fibrosis,[8]; 16 weeks,29.15 ± 18.74
same,Hydroproline level,[8]; 16 weeks,67.65 ± 11.99 µg/mg
same,Evaluation on lung fibrosis,[8]; 24 weeks,19.46 ± 6.67
same,Hydroproline level,[8]; 24 weeks,79.15 ± 10.90 µg/mg
C[C@@H]1C[C@H]2[C@@H]3CCC4=CC(=O)C=C[C@]4(C)[C@@]3(F)[C@@H](O)C[C@]2(C)[C@@]1(O)C(=O)CO [dexamethasone],Lung Index (±S),[3],1083.90 ± 289.66
same,Mortality rate,[9]; [20],64.3%
same,Number of dead animal,[9]; [20],9/14
same,Body weight,"[9]; rat, in vivo",Loss of body weight
